The text below walks through data of ChEMBL document CHEMBL1201862, “PubChem BioAssay data set” (2004).

Molecules are shown by their SMILES.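 Grown in 96-well plates, cells were treated for 48 hours with each compound at five concentrations. Insufficient inhibition: endpoint recorded as highest concentration tested. Here, GI50 denotes the concentration required for 50% inhibition of growth.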 Active and inactive are the calls of the source. Cut-off read from the data, not from the text of the source: active = GI50 up to about 1.1 µM and inactive = higher.

What all share (experiment): DTP human tumour cell line panel, 48 h
In experiment [1] the test system is NCI-H23.
Experiment [2] relates to A549.
Experiment [3] relates to OVCAR-8.
Experiment [4] concerns CAKI-1.
Experiment [5] concerns HCT-15.
Experiment [6] deals with MOLT-4.
Experiment [7] deals with SN12C.
In experiment [8] the test system is UACC-62.
The test system of experiment [9] is MCF7.
In experiment [10] the test system is MDA-MB-231.
Experiment [11] deals with SW-620.
The subject of experiment [12] is NCI-H226.
The subject of experiment [13] is MDA-MB-435.
In experiment [14] the test system is UACC-257.
The subject of experiment [15] is OVCAR-4.
In experiment [16] the test system is RXF 393.
Experiment [17] has as its system SK-MEL-2.
The test system of experiment [18] is SK-MEL-28.
The test system of experiment [19] is MDA-N.
For experiment [20], the system named is Hs-578T.

The GI50 is the concentration at which growth is held to half of that of the control. On to `NC(=O)C1=CC2C3C=CC2(O)C(=O)OC3O1` (stereo not given), for which the GI50 in experiment [1] was 2.91 µM (inactive); in experiment [2], 34.7 µM (inactive); in [3], 2.46 µM (inactive); in [4] it was 6.07 µM (inactive); in experiment [5] it was 3.39 µM; in [6], 1.88 µM (inactive). In addition, the GI50 in experiment [7] is 4.28 µM (inactive); in experiment [8], 2.71 µM (inactive); in experiment [9], 3.28 µM (inactive); in [10], 7.64 µM (inactive); in experiment [11], 4.02 µM (inactive); in experiment [12], 2.31 µM (inactive). For the same compound, the GI50 is 3.27 µM (inactive) in [13]; 2.58 µM (inactive) in experiment [14]; 4.33 µM (inactive) in [15]; 2.52 µM (inactive) in experiment [16]; 3.57 µM (inactive) in experiment [17]; 2.34 µM (inactive) in experiment [18]. Moreover, the GI50 in [19] was 2.61 µM (inactive); in experiment [20], 1.81 µM (inactive).
For the compound `OC1c2c(ccc3c2CCC3)CC12Cc1ccccc1C2` (stereo not given), the GI50 is 16.8 µM (inactive) in [1]; 17.1 µM (inactive) in experiment [2]; 17.7 µM (inactive) in [3]; 16.7 µM (inactive) in experiment [4]; 16.5 µM in [5]; 26.6 µM (inactive) in experiment [6]. Also, the GI50 in experiment [7] is 15.3 µM (inactive); in experiment [8] it was 15.4 µM (inactive); in experiment [9], 18 µM (inactive); in [10], 15.2 µM (inactive); in experiment [11], 17.7 µM (inactive); in [12] it was 13.4 µM (inactive). Besides, the GI50 in [13] is 15.7 µM (inactive); in experiment [14] it was 14.1 µM (inactive); in experiment [15], 16.4 µM (inactive); in experiment [16], 13.8 µM (inactive); in experiment [17], 15.3 µM (inactive); in experiment [18], 16.6 µM (inactive). Moreover, the results for the GI50 in [19] and in experiment [20] were 15.5 µM (inactive) and 16.6 µM (inactive), respectively.
`COc1cc(CNc2c3ccccc3nc3ccccc23)cc(OC)c1OC`: the GI50 was 3.46 µM (inactive) in experiment [1]; 3.32 µM (inactive) in [2]; 3.79 µM (inactive) in experiment [3]; 2.74 µM (inactive) in experiment [4]; 2.97 µM in experiment [5]; 1.37 µM (inactive) in [6]. Further, the GI50 in experiment [7] was 2.88 µM (inactive); in experiment [8] it was 2.43 µM (inactive); in [9], 5.48 µM (inactive); in experiment [10] it was 5.42 µM (inactive); in [11], 1.16 µM (inactive); in [12], 3.15 µM (inactive). Also, the GI50 in experiment [13] is 3.5 µM (inactive); in experiment [14], 3.11 µM (inactive); in experiment [15], 2.1 µM (inactive); in experiment [16] it was 2.86 µM (inactive); in experiment [17], 2.23 µM (inactive); in [18], 5.04 µM (inactive). For the same compound, the GI50 in [19] is 2.76 µM (inactive); in [20], 3.64 µM (inactive).
On to `CC1=NN(c2ccccc2)C(=O)/C1=C1\SC(c2ccccc2)(c2ccccc2)c2ccccc21`, for which the GI50 in [1] is > 100 µM (inactive); in experiment [2], > 100 µM (inactive); in [3], > 100 µM (inactive); in experiment [4], > 100 µM (inactive); in experiment [5], more than 100 µM; in experiment [6], > 100 µM (inactive). The GI50 in experiment [7], in experiment [8], in experiment [9], in [10], in experiment [11] and in [12] was > 100 µM (inactive) throughout. Further, the GI50 in experiment [13], in [14], in experiment [15], in experiment [16], in experiment [17] and in experiment [18] was > 100 µM (inactive) each time. For the same compound, the GI50 in [19] and in experiment [20] was > 100 µM (inactive) throughout.
As for `O=c1c(NCc2ccccc2)c(C2(c3ccccc3F)SCCCS2)c1=O`, the GI50 in [1] is > 100 µM (inactive); in experiment [2], > 100 µM (inactive); in experiment [3] it was > 100 µM (inactive); in experiment [4], > 100 µM (inactive); in [5] it was more than 100 µM; in experiment [6], 54 µM (inactive). Moreover, the GI50 was > 100 µM (inactive) in experiment [7]; 79.1 µM (inactive) in experiment [8]; > 100 µM (inactive) in [9]; > 100 µM (inactive) in [10]; > 100 µM (inactive) in experiment [11]; > 100 µM (inactive) in experiment [12]. For the same compound, the GI50 in experiment [13] is 19.5 µM (inactive); in [14], > 100 µM (inactive); in experiment [15], > 100 µM (inactive); in [16] it was > 100 µM (inactive); in experiment [17], > 100 µM (inactive); in experiment [18], > 100 µM (inactive). Further, the GI50 was 41.9 µM (inactive) in [19] and > 100 µM (inactive) in [20].
As to `COC(=O)c1cc2c3c(cc(NCCN)c2[nH]1)N(C(=O)c1cc2cc(OC)c(OC)c(OC)c2[nH]1)CC3CCl` (stereo not given), the GI50 is 0.0659 µM (active) in experiment [1]; 0.145 µM (active) in experiment [2]; 0.109 µM (active) in [3]; 0.144 µM (active) in experiment [4]; 0.573 µM in experiment [5]; 0.0251 µM (active) in experiment [6]. The GI50 in experiment [7] is 0.0982 µM (active); in experiment [8], 0.0594 µM (active); in [9], 0.014 µM (active); in experiment [10] it was 0.0638 µM (active); in experiment [11] it was 0.0369 µM (active); in experiment [12], 0.0177 µM (active). Also, the GI50 in [13] is 0.152 µM (active); in [14] it was 0.214 µM (active); in experiment [15], 0.0925 µM (active); in experiment [16], 0.0301 µM (active); in experiment [17], 0.0628 µM (active); in experiment [18], 0.109 µM (active). The GI50 was 0.0811 µM (active) in experiment [19] and 0.049 µM (active) in experiment [20].
`C=CC[C@@]1(C)CCCCCCCCC[C@@](C)(CC=C)C1=O`: the GI50 was 25.5 µM (inactive) in experiment [1]; 40 µM (inactive) in experiment [2]; 21.5 µM (inactive) in experiment [3]; 35.4 µM (inactive) in experiment [4]; 29.4 µM in experiment [5]; 20.4 µM (inactive) in experiment [6]. Further, the GI50 was 29.2 µM (inactive) in [7]; 27.9 µM (inactive) in experiment [8]; 38.8 µM (inactive) in [9]; 28.8 µM (inactive) in experiment [10]; 24.6 µM (inactive) in experiment [11]; 23.8 µM (inactive) in experiment [12]. The GI50 was 46.9 µM (inactive) in [13]; 25.2 µM (inactive) in experiment [14]; > 100 µM (inactive) in experiment [15]; 16.9 µM (inactive) in [16]; 17.8 µM (inactive) in experiment [17]; 34.1 µM (inactive) in experiment [18]. In addition, the GI50 in experiment [19] is 50.8 µM (inactive); in experiment [20] it was 18.9 µM (inactive).
Take `C(=C\c1ccccc1)/C=N/c1nc2cc3sc(/N=C/C=C/c4ccccc4)nc3cc2s1`: the GI50 in experiment [1] was 42.2 µM (inactive); in [2] it was 12.1 µM (inactive); in [3], > 92.3 µM (inactive); in experiment [4] it was 70.6 µM (inactive); in experiment [5], 33.7 µM; in experiment [6], 7.35 µM (inactive). The GI50 in experiment [7] is 69.2 µM (inactive); in experiment [8], 99.8 µM (inactive); in [9], 12.6 µM (inactive); in experiment [10] it was > 100 µM (inactive); in experiment [11], > 45.3 µM (inactive); in experiment [12], 0.813 µM (active). Besides, the GI50 in experiment [13], in [14], in experiment [15], in experiment [16], in experiment [17] and in experiment [18] was > 100 µM (inactive) throughout. For the same compound, the results for the GI50 in experiment [19] and in experiment [20] were > 72.1 µM (inactive) and > 100 µM (inactive), respectively.
